From patent US4314061A, “Certain 3,6-bis-(heteroaminoalkoxy) acridines” (priority 1980, dated 1982)

What was measured:
[1] = system: Rauscher Virus-Induced Leukemia; test: Inhibition of splenomegaly in mice with Rauscher virus-induced leukemia; format: in vivo, Balb/c mice
[2] = system: circulating interferon; test: Induction of circulating interferon in mice; format: in vivo, BDF1 mice; details: 300 mg/kg single oral
[3] = system: B-16 melanoma; test: Potentiation of cyclophosphamide (Cytoxan) activity against B16 melanoma in mice; format: in vivo, BDF1 mice
Method: BDF1 male mice were inoculated subcutaneously with 0.25 ml. of a 10% B-16 melanoma homogenate. Cyclophosphamide was administered intraperitoneally at 80 mg./kg. the second day following the day of tumor implantation. Test compounds were given intraperitoneally on days +6, +8 and +10 relative to tumor implantation. […]
BDF1 male mice inoculated subcutaneously with 0.25 ml. of a 10% tumo
homogenate on day 0. Drugs were administered intraperitoneally;
cyclophosphoamide on day 2, 3,6bis(2-diethylaminoethoxy)acridine
trihydrochloride on days 6, 8 and 10.
^1 Number of survivors over number of mice treated.

[4] = system: Columbia SK virus; test: Antiviral effects against an interferon-sensitive virus, Columbia SK; format: in vivo, Taconic Farms male, white mice; details: 400 mg/kg oral, 18 hours before infection; 14 days post injection
Method: Taconic Farms male, white mice, weighing 18-24 g were treated by gavage, 18 hours before infection with a test compound suspended or dissolved in 1.0 ml of 0.2% aqueous agar solution. The mice were then infected by subcutaneous injection with one LD95 of Columbia SK virus in 0.2 ml of distilled water. Groups of infected, untreated mice were used as controls to show the lethality of the infection. The test duration was 14 days.

[5] = system: Lewis lung carcinoma; test: Antitumor activity against intravenously inoculated Lewis lung carcinoma in mice; format: in vivo, BDF1 mice; details: Day +19
Method: Lewis lung carcinoma cells, 5×10^5 viable cells, were injected intravenously into BDF1 mice. The drug was prepared in normal saline and administered once daily, by the oral route, at doses ranging from 38 mg./kg to 400 mg/kg on days 1, 7, and 13 following tumor cell inoculation. A control group of mice received a saline placebo, instead of drug, by the oral route on the same days of treatment. All mice were sacrificed on day 19 following tumor inoculation, their lungs removed and individually weighed. Additionally, a group of 10 normal, non-tumor bearing BDF1 mice, of the same sex, age, and body weight as the tumor bearing mice, were sacrificed and their lungs removed and weighed to determine the average normal lung weight. The average normal lung weight was subtracted from the weight of lungs from the tumored mice to determine the weight of tumorous tissue present in the lungs of the tumor bearing mice. A postive drug effect is indicated by a ≥58% reduction in the average lung tumor weight of the drug treated mice, relative to the average lung tumor weight of the saline placebo treated mice.
^1 BDF1 male mice inoculated intravenously with 5 ×
10^5 Lewis lung tumor cells on day zero:
3,6bis(2-diethylaminoethoxy)acridine trihydrochloride administered on day
1,7, and 13 after tumor inoculation.
^2 Average lung tumor weight = average weight of lungs from tumor
bearing mice, minus average weight of lungs from normal, nontumor bearing
*Denotes significant (≥58%) inhibition of lung tumor weight.

[6] = system: Rauscher Virus-Induced Leukemia; test: Restoration of antibody formation in mice with Rauscher virus-induced leukemia; format: in vivo, Balb/c mice; details: 100 mg/kg IP
[7] = 25 mg/kg i.p. + cyclophosphamide 80 mg/kg
[8] = 25 mg/kg i.p. + cyclophosphamide 80 mg/kg, day 21
[9] = 50 mg/kg i.p. + cyclophosphamide 80 mg/kg
[10] = 50 mg/kg i.p. + cyclophosphamide 80 mg/kg, day 21
[11] = 100 mg/kg i.p. + cyclophosphamide 80 mg/kg
[12] = 100 mg/kg i.p. + cyclophosphamide 80 mg/kg, day 21

SMILES: CCN(CC)CCOc1ccc2cc3ccc(OCCN(CC)CC)cc3nc2c1.Cl.Cl.Cl
- % Reduction in splenomegaly ([1]; 50 mg/kg): 68%
- % Reduction in splenomegaly ([1]; 100 mg/kg): 71%
- Induction of circulating interferon, in words [2]: induced the production of high levels of circulating interferon
- Time of peak titers of interferon after drug administration [2]: 16 to 24 h
- Serum interferon titer ([2]; 0 hours): 10 units/ml
- Serum interferon titer ([2]; 8 hours): 100 units/ml
- Serum interferon titer ([2]; 16 hours): 3200 units/ml
- Serum interferon titer ([2]; 24 hours): 3200 units/ml
- Serum interferon titer ([2]; 32 hours): 2100 units/ml
- Serum interferon titer ([2]; 48 hours): 50 units/ml
- Interferon titer 72 hours after drug treatment, in words ([2]; 72 hours): at normal levels
- Serum interferon titer ([2]; 72 hours): 10 units/ml
- ILS (Percent increase in life span over control) [3, 7]: 31%
- MST (Median Survival Time) [3, 7]: 29.5 days
- Average tumor weight [3, 8]: 2029 mg
- Number of survivors over number of mice treated [3, 8]: 8/8
- Number of survivors over number of mice treated ([3]; 25 mg/kg i.p. + cyclophosphamide 80 mg/kg, day 26): 6/8
- Average tumor weight ([3]; 25 mg/kg i.p. + cyclophosphamide 80 mg/kg, day 26, p <0.05 vs cyclophosphamide alone and vs either drug alone): 3125 mg
- ILS (Percent increase in life span over control) ([3]; 25 mg/kg i.p. alone): 27%
- MST (Median Survival Time) ([3]; 25 mg/kg i.p. alone): 28.5 days
- Average tumor weight ([3]; 25 mg/kg i.p. alone, day 21): 2625 mg
- Number of survivors over number of mice treated ([3]; 25 mg/kg i.p. alone, day 21): 7/8
- Number of survivors over number of mice treated ([3]; 25 mg/kg i.p. alone, day 26): 5/8
- Average tumor weight ([3]; 25 mg/kg i.p. alone, day 26, p <0.05 vs untreated): 6303 mg
- ILS (Percent increase in life span over control) [3, 9]: 27%
- MST (Median Survival Time) [3, 9]: 28.5 days
- Average tumor weight [3, 10]: 2041 mg
- Number of survivors over number of mice treated [3, 10]: 8/8
- Number of survivors over number of mice treated ([3]; 50 mg/kg i.p. + cyclophosphamide 80 mg/kg, day 26): 7/8
- Average tumor weight ([3]; 50 mg/kg i.p. + cyclophosphamide 80 mg/kg, day 26, p <0.05 vs cyclophosphamide alone): 4258 mg
- ILS (Percent increase in life span over control) ([3]; 50 mg/kg i.p. alone): 18%
- MST (Median Survival Time) ([3]; 50 mg/kg i.p. alone): 26.5 days
- Number of survivors over number of mice treated ([3]; 50 mg/kg i.p. alone, day 21): 7/8
- Average tumor weight ([3]; 50 mg/kg i.p. alone, day 21, p <0.05 vs untreated): 2168 mg
- Number of survivors over number of mice treated ([3]; 50 mg/kg i.p. alone, day 26): 4/8
- Average tumor weight ([3]; 50 mg/kg i.p. alone, day 26, p <0.05 vs untreated): 3111 mg
- ILS (Percent increase in life span over control) [3, 11]: 22%
- MST (Median Survival Time) [3, 11]: 27.5 days
- Average tumor weight [3, 12]: 1532 mg
- Number of survivors over number of mice treated [3, 12]: 8/8
- Number of survivors over number of mice treated ([3]; 100 mg/kg i.p. + cyclophosphamide 80 mg/kg, day 26): 5/8
- Average tumor weight ([3]; 100 mg/kg i.p. + cyclophosphamide 80 mg/kg, day 26, p <0.05 vs cyclophosphamide alone): 2836 mg
- ILS (Percent increase in life span over control) ([3]; 100 mg/kg i.p. alone): 22%
- MST (Median Survival Time) ([3]; 100 mg/kg i.p. alone): 27.5 days
- Number of survivors over number of mice treated ([3]; 100 mg/kg i.p. alone, day 21): 7/8
- Average tumor weight ([3]; 100 mg/kg i.p. alone, day 21, p <0.05 vs untreated): 1892 mg
- Number of survivors over number of mice treated ([3]; 100 mg/kg i.p. alone, day 26): 7/8
- Average tumor weight ([3]; 100 mg/kg i.p. alone, day 26, p <0.05 vs untreated): 4127 mg
- inhibition in local tumor growth ([3]; in combination with Cytoxan, i.p., day +26): 50%
- 50% inhibition in local tumor growth, in words ([3]; monotherapy, i.p., day +26): failed to do so
- Survivors/Total [4]: 10/15
- Average % tumor inhibition ([5]; 38 mg/kg oral): 33%
- Average lung tumor weight ([5]; 38 mg/kg oral): 99 mg
- No. Survivors/No. Treated ([5]; 38 mg/kg oral): 10/12
- Average % tumor inhibition ([5]; 75 mg/kg oral): 5%
- Average lung tumor weight ([5]; 75 mg/kg oral): 139 mg
- No. Survivors/No. Treated ([5]; 75 mg/kg oral): 12/12
- Average % tumor inhibition ([5]; 150 mg/kg oral): 51%
- Average lung tumor weight ([5]; 150 mg/kg oral): 72 mg
- No. Survivors/No. Treated ([5]; 150 mg/kg oral): 12/12
- Average lung tumor weight ([5]; 300 mg/kg oral): 40 mg
- No. Survivors/No. Treated ([5]; 300 mg/kg oral): 12/12
- Average % tumor inhibition ([5]; 300 mg/kg oral, * significant (≥58%)): 73%
- Average lung tumor weight ([5]; 400 mg/kg oral): 12 mg
- No. Survivors/No. Treated ([5]; 400 mg/kg oral): 10/12
- Average % tumor inhibition ([5]; 400 mg/kg oral, * significant (≥58%)): 92%
- Serum hemagglutinin titer/saline control titer [6]: 512/32
